Each structure is given as a SMILES string.

Results on one compound are retold here after patent publication US7985556B2, “Method of screening apoptosis accelerating compound or anti-apoptotic compound and method of determining malignancy of neurodegenerative disease” (Hisamitsu Pharmaceutical Co., Inc., priority 2005, dated 2011).

Common to all, as to format: cell-based, human
Assay [1] has as its system SH-SY5Y cells. Briefly: Apoptosis of SH-SY5Y cells by cisplatin treatment (TUNEL staining). To be noted: cisplatin final concentration 20 μM. The protocol:
SH-SY5Y cells were cultured in the presence of cisplatin (final concentration: 20 μM). The cells were fixed with paraformaldehyde at prescribed time points after the start of culturing and subjected to TUNEL staining, and the TUNEL-positive cells were counted. […] The extent of cell death by cisplatin was detected.

Assay [2] has as its system p21WAF1, phosphorylated p53, p53 and NEDL1 protein expression in SH-SY5Y cells. Kind of assay: Expression analysis by Western blotting in cisplatin treated SH-SY5Y cells. The note with it: cisplatin 20 μM, total protein. The procedure: The RT-PCR, Western blotting, immunoprecipitation, luciferase reporter assay and cell fractionation were performed according to the procedure described in Ando et al., J. Biol. Chem., 279: 25549-25561, 2004. Colony formation was performed according to the procedure described in Ozaki et al., Cancer Res., 59: 5902-5907, 1999. Under the same conditions as in Example 1, SH-SY5Y cells were treated with cisplatin and cells were recovered at a prescribed time point, after which the total protein was extracted and the expression of p21^WAF1, phosphorylated p53 (p53 (Ser 15)), p53 and NEDL1 was analyzed by Western blotting. Actin was used as an expression level control.
On the technique in general: Immunoblotting shows a protein as a band on a membrane.

Assay [3] has as its system NEDL1 gene expression in SH-SY5Y cells. Briefly: Expression analysis by RT-PCR in cisplatin treated SH-SY5Y cells. To be noted: cisplatin 20 μM, total RNA. The protocol:
The RT-PCR, Western blotting, immunoprecipitation, luciferase reporter assay and cell fractionation were performed according to the procedure described in Ando et al., J. Biol. Chem., 279: 25549-25561, 2004. Colony formation was performed according to the procedure described in Ozaki et al., Cancer Res., 59: 5902-5907, 1999.
Under the same conditions as in Example 1, SH-SY5Y cells were treated with cisplatin and cells were recovered at a prescribed time point, after which the total RNA was extracted and expression of the NEDL1, NEDL2, NEDD4, p21^WAF1 and p53 genes was analyzed by RT-PCR. GAPDH was used as an expression level control.

Consider `N.N.[Cl][Pt][Cl]` [cisplatin], for which the “cell death (TUNEL-positive cells)” value in assay [1] is recorded as “detected”. In assay [2], the “Expression of NEDL1 (Western blotting)” value is recorded as “induced”, the “Expression of p21WAF1 (Western blotting)” value is recorded as “induced”, the “Expression of p53 (Western blotting)” value was “induced” and the “Expression of phosphorylated p53 (p53 (Ser 15)) (Western blotting)” value is “induced”. Also, the “Expression of NEDL1 (RT-PCR)” value in assay [3] was “induced”.
